This note sets out measurements from patent publication US6365572B1, “Low molecular weight peptide derivatives as inhibitors of the laminin/nidogen interaction” (Aventis Pharma Deutschland GmbH, priority 1999, dated 2002).

Starred links: 1 amine or outer side, 2 acyl side, 3 side chain; linkers in the order of their positions; H or OH if unused. Non-standard residues stand in square brackets, D forms with d. Residues, ends and D or L forms follow the SMILES beside them. *: point of attachment. X2 = O=C([C@@H]1[C@H](c2ccccc2)CCN1[*:1])[*:2]; Pro(3R-Ph) = O=C(O)[C@H]1NCC[C@@H]1c1ccccc1; Bip = N[C@@H](Cc1ccc(-c2ccccc2)cc1)C(=O)O; Dip = N[C@H](C(=O)O)C(c1ccccc1)c1ccccc1; 2Nal = N[C@@H](Cc1ccc2ccccc2c1)C(=O)O; d2Nal = N[C@H](Cc1ccc2ccccc2c1)C(=O)O; βAsp = O=C(O)[C@H](CC(=O)[*:2])N[*:1]; Glutaryl = O=C(CCCC(=O)[*:2])[*:1]; hPhe = N[C@@H](CCc1ccccc1)C(=O)O; 3Pal = N[C@@H](Cc1cccnc1)C(=O)O; Cit = NC(=O)NCCC[C@H](N)C(=O)O; NH(3-hydroxypropyl) = OCCCN*; X1 = CC(=O)c1ccccc1C(=O)*

This assay concerns the target T1, laminin/nidogen interaction (laminin P1, recombinantly produced human nidogen) (Homo sapiens, UniProt P14543).
T1 construct: made in house; host or cells: HEK-293
T1 sequence (P14543 29-1247): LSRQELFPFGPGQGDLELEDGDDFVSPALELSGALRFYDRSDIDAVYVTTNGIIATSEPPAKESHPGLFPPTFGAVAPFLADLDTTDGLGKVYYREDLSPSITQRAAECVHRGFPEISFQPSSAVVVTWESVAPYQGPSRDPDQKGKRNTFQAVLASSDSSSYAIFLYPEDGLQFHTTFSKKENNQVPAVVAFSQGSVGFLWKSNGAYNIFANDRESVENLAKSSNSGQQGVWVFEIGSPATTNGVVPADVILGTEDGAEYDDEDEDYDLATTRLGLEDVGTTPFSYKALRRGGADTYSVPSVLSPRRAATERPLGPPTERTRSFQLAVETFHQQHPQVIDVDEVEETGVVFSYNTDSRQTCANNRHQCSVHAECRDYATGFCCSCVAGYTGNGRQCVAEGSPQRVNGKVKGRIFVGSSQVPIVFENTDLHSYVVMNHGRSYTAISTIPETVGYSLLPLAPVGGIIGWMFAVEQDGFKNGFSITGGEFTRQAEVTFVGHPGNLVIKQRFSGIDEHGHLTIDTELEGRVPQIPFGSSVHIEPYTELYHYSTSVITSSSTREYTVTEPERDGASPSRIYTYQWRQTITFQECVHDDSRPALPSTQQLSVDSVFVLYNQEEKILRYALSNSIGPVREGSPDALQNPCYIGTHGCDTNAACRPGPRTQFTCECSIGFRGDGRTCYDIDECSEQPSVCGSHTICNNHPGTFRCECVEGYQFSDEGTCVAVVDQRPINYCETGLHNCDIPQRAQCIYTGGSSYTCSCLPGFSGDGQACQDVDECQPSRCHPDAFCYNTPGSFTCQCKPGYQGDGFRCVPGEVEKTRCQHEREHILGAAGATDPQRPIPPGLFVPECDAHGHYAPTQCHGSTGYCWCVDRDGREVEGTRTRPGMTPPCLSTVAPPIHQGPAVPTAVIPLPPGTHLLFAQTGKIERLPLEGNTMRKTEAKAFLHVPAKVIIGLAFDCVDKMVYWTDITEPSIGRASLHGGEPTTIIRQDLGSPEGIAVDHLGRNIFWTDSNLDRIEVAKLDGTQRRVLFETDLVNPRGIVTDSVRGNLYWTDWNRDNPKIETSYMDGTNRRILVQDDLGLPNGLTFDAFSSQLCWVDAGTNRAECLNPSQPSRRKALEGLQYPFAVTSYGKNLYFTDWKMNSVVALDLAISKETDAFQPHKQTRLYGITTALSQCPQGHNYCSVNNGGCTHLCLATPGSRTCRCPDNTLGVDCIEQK
The experiment in a line: HTS screening assay (time-resolved fluorescence), inhibition of laminin/nidogen binding. To be noted: results table 1.3, synthesized compounds 1 to 43; read-out: IC50. As for the experimental part:
5) The compound stocks were preincubated with nidogen (10 μl compound stock to 90 μl nidogen solution) and the assay was performed as described in the attached protocol, yielding a final screening concentration of 2.7 μM per compound. The isolation of laminin P1 from human placenta, human nidogen from transfected HEK-293 cells and mouse laminin γ1III 3-5 from HEK-293 cells is described in WO 98/31709. 3.1.1. HTS screening assay (highly sensitive assay variant): Time-Resolved Fluorescence Assay Coating of test tubes Microtiter plates (for example FluoroNunc®) were coated with 75 μl of a 0.1 μg/ml solution of laminin P1 (in 0.159 g of Na2CO3, 0.293 g of NaHCO3, 0.02 g of NaN3/liter, pH 9.2) at room temperature for 1 hour. The solution was then tipped off, and free binding sites were blocked by incubation with 0.5% BSA (in 7.9 g of NaCl, 1.2 g of Na2HPO4, 0.31 g of KCl, 0.23 g of NaH2PO4, 0.04% Tween 20/liter, pH 7.2) at room temperature for 0.5 hour. Completion of the blocking reaction was followed by decantation of the solution and washing once with 250 μl of washing buffer (PBS/0.04% Tween). Sequential inhibition In parallel with the coating, a preincubation of 85-100 μl of a 0.25 nM nidogen solution (recombinantly produced human nidogen) with inhibitor or standard was carried out in a separate reaction vessel (1 hour at room temperature in 7.9 g of NaCl, 1.2 g of Na2HPO4, 0.31 g of KCl, 0.23 g of NaH2PO4, 0.04% Tween 20/liter, 0.5% BSA, pH 7.2). 75 μl of the preincubation (nidogen+inhibitor or standard) were transferred into the coated wells of the microtiter plate and incubated at room temperature for 1 hour. This was followed by washing twice with PBS/0.04% Tween. Detection of the bound nidogen took place by incubation (at room temperature) for 1 hour with 75 μl of a specific antibody preparation obtained from yolks of eggs from a chicken immunized with human nidogen. The IgY fraction was used in a dilution of 1:500 in PBS/0.04% Tween. The complex of nidogen and specifically bound antibodies was, after washing twice with PBS/0.04% Tween, detected by adding anti-chicken IgY-biotin (75 μl of a 1:2500 dilution; Promega, Madison, Wis. 53711, 608-274-4330). An incubation time of 1 hour and washing twice with PBS/0.04% Tween were followed for this purpose by incubation with streptavidin-europium (Wallac; 1 hour at room temperature) and washing twice with PBS/0.04% Tween. It was finally possible, after adding 100 μl of enhancement solution (Wallac) and shaking for 5 minutes, to measure a fluorescence signal in a Victor multilabel counter using the europium protocol. The relation between the amount, of bound nidogen in the solutions with inhibitor and that of nidogen without added inhibitor was found.
As usually defined, the IC50 is the concentration at which inhibition is half-maximal. For the compound `CC(C)[C@H](NC(=O)[C@H](C)NC(=O)[C@H](CC(N)=O)NC(=O)[C@H](Cc1ccc(-c2ccccc2)cc1)NC(=O)[C@@H](N)CC(=O)O)C(=O)NCC(=O)NCCCO` [Compound 14, L-Aspartyl-L-3-(4-biphenyl)alanyl-L-asparaginyl-L-alanyl-L-valyl-glycine-3-hydroxypropylamide] (H-D[Bip]NAVG-{NH(3-hydroxypropyl)}), the IC50 was 0.94 µM.
As for `CC(C)[C@H](NC(=O)[C@H](C)NC(=O)[C@H](CC(N)=O)NC(=O)[C@@H](NC(=O)[C@@H](N)CC(=O)O)C(c1ccccc1)c1ccccc1)C(=O)NCC(=O)NCCCO` [Compound 15, L-Aspartyl-L-(3,3-diphenyl)alanyl-L-asparaginyl-L-alanyl-L-valyl-glycine-3-hydroxypropylamide] (H-D[Dip]NAVG-{NH(3-hydroxypropyl)}), the figure is 26.3 µM; as for `CC(C)[C@H](NC(=O)[C@H](CO)NC(=O)[C@H](CC(N)=O)NC(=O)[C@@H]1[C@H](c2ccccc2)CCN1C(=O)[C@@H](N)CC(=O)O)C(=O)NCC(=O)NCCCO` [Compound 16, L-Aspartyl-L-(3S)-phenylprolyl-L-asparaginyl-L-seryl-L-valyl-glycine-3-hydroxypropylamide] (H-D[X2]NSVG-{NH(3-hydroxypropyl)}), 4.28 µM; as for `CC(C)[C@H](NC(=O)[C@H](CO)NC(=O)[C@H](CC(N)=O)NC(=O)[C@@H]1[C@@H](c2ccccc2)CCN1C(=O)[C@@H](N)CC(=O)O)C(=O)NCC(=O)NCCCO` [Compound 17, L-Aspartyl-L-(3R)-phenylprolyl-L-asparaginyl-L-seryl-L-valyl-glycine-3-hydroxypropylamide] (H-D[Pro(3R-Ph)]NSVG-{NH(3-hydroxypropyl)}), 2.27 µM.
As for `CC(C)[C@H](NC(=O)[C@H](CO)NC(=O)[C@H](CC(N)=O)NC(=O)[C@H](Cc1cccnc1)NC(=O)[C@@H](N)CC(=O)O)C(=O)NCC(=O)NCCCO` [Compound 18, L-Aspartyl-L-3-(3-pyridyl)alanyl-L-asparaginyl-L-seryl-L-valyl-glycine-3-hydroxypropylamide] (H-D[3Pal]NSVG-{NH(3-hydroxypropyl)}), the IC50 came out at 25 µM.
Consider `CC(C)[C@H](NC(=O)[C@H](CO)NC(=O)[C@H](CC(N)=O)NC(=O)[C@@H](Cc1ccc2ccccc2c1)NC(=O)[C@@H](N)CC(=O)O)C(=O)NCC(=O)NCCCO` [Compound 19, L-Aspartyl-D-3-(2-naphthyl)alanyl-L-asparaginyl-L-seryl-L-valyl-glycine-3-hydroxypropylamide] (H-D[d2Nal]NSVG-{NH(3-hydroxypropyl)}), for which the IC50 turned out to be 25 µM.
Take `CC(C)[C@H](NC(=O)[C@H](CO)NC(=O)[C@H](CC(N)=O)NC(=O)[C@H](CCc1ccccc1)NC(=O)[C@@H](N)CC(=O)O)C(=O)NCC(=O)NCCCO` [Compound 20, L-Aspartyl-L-homophenylalanyl-L-asparaginyl-L-seryl-L-valyl-glycine-3-hydroxypropylamide] (H-D[hPhe]NSVG-{NH(3-hydroxypropyl)}): the IC50 is 32.5 µM.
As for `CC(C)[C@H](NC(=O)[C@H](CO)NC(=O)[C@H](CC(N)=O)NC(=O)[C@H](Cc1ccc2ccccc2c1)NC(=O)[C@@H](N)CC(=O)O)C(=O)NCC(N)=O` [Compound 21, L-Aspartyl-L-3-(2-naphthyl)alanyl-L-asparaginyl-L-seryl-L-valyl-glycine-amide] (H-D[2Nal]NSVG-NH2), the figure is 0.34 µM; as for `CC(C)[C@H](NC(=O)[C@H](CO)NC(=O)[C@H](CC(N)=O)NC(=O)[C@H](Cc1ccc2ccccc2c1)NC(=O)[C@@H](N)CC(=O)O)C(N)=O` [Compound 22, L-Aspartyl-L-3-(2-naphthyl)alanyl-L-asparaginyl-L-seryl-L-valine-amide] (H-D[2Nal]NSV-NH2), 0.18 µM; as for `CC(=O)c1ccccc1C(=O)N[C@@H](Cc1ccc2ccccc2c1)C(=O)N[C@@H](CC(N)=O)C(=O)N[C@@H](CO)C(=O)N[C@H](C(=O)NCC(=O)NCCCO)C(C)C` [Compound 23] (X1-[2Nal]NSVG-{NH(3-hydroxypropyl)}), 1.49 µM.
As for `CC(C)[C@H](NC(=O)[C@H](CO)NC(=O)[C@H](CC(N)=O)NC(=O)[C@H](Cc1ccc2ccccc2c1)NC(=O)C[C@H](N)C(=O)O)C(=O)NCC(=O)NCCCO` [Compound 25, L-β-Aspartyl-L-3-(2-naphthyl)alanyl-L-asparaginyl-L-seryl-L-valyl-glycine-3-hydroxypropylamide] (βAsp-[2Nal]NSVG-{NH(3-hydroxypropyl)}), the figure is 0.23 µM.
Take `CC(C)[C@H](NC(=O)[C@H](CO)NC(=O)[C@H](CC(N)=O)NC(=O)[C@H](Cc1ccc2ccccc2c1)NC(=O)CCCC(=O)O)C(=O)NCC(=O)NCCCO` [Compound 26, Glutaryl-L-3-(2-naphthyl)alanyl-L-asparaginyl-L-seryl-L-valyl-glycine-3-hydroxypropylamide] (Glutaryl-[2Nal]NSVG-{NH(3-hydroxypropyl)}): the IC50 worked out at 0.45 µM.
As for `CC(C)[C@H](NC(=O)[C@H](CO)NC(=O)[C@H](CC(N)=O)NC(=O)[C@H](Cc1ccc2ccccc2c1)NC(=O)[C@H](CC(=O)O)NC(=O)[C@@H](N)CCCNC(N)=O)C(=O)NCC(=O)NCCCO` [Compound 27, L-Citrulyl-L-aspartyl-L-3-(2-naphthyl)alanyl-L-asparaginyl-L-seryl-L-valyl-glycine-3-hydroxypropylamide] (H-[Cit]D[2Nal]NSVG-{NH(3-hydroxypropyl)}), the figure is 0.44 µM; as for `CC(C)[C@H](NC(=O)[C@H](CO)NC(=O)[C@H](CC(N)=O)NC(=O)[C@H](Cc1ccc2ccccc2c1)NC(=O)[C@H](CC(=O)O)NC(=O)[C@@H](N)CCCNC(=N)N)C(=O)NCC(=O)NCCCO` [Compound 28, L-Arginyl-L-aspartyl-L-3-(2-naphthyl)alanyl-L-asparaginyl-L-seryl-L-valyl-glycine-3-hydroxypropylamide] (H-RD[2Nal]NSVG-{NH(3-hydroxypropyl)}), 0.15 µM; as for `CC(C)[C@H](NC(=O)[C@H](CO)NC(=O)[C@H](CC(N)=O)NC(=O)[C@H](Cc1ccc2ccccc2c1)NC(=O)[C@H](CC(=O)O)NC(=O)[C@@H](N)CCCCN)C(=O)NCC(=O)NCCCO` [Compound 29, L-Lysyl-L-aspartyl-L-3-(2-naphthyl)alanyl-L-asparaginyl-L-seryl-L-valyl-glycine-3-hydroxypropylamide] (H-KD[2Nal]NSVG-{NH(3-hydroxypropyl)}), 0.24 µM.
